Results taken from patent US20100003217A1, “Compounds and Pharmaceutical Compositions for the Treatment of Viral Infections” (priority 2008, published 2010).
Several values for one entry are separate records, joined by “and”; a condition that tells them apart may be missing. Identical values can stand only once.

Columns and labels:
[1] = Metabolite profile in rat urine; assay type: in vivo, male Sprague-Dawley rats; settings: for Percent of Dose, Urine 0-24 h: after [14C]Compound 1; for % AD, estimated: from single animal HPLC distribution and mean % AD
[2] = Stability in human liver microsomes; assay type: in vitro ADME; settings: 10 μM; for % Residual Compound 1: human liver microsomes 1 mg/mL
[3] = Excretion of administered dose in rat urine and feces; assay type: in vivo, male Sprague-Dawley rats; settings: IV; 24 h after [14C]Compound 1
pig liver esterase = assay: Incubation with pig liver esterase; assay type: in vitro ADME
[4] = Stability in rat liver microsomes; assay type: in vitro ADME; settings: 10 μM; for % Residual Compound 1: rat liver microsomes 1 mg/mL
[5] = Stability in monkey liver microsomes; assay type: in vitro ADME; settings: 10 μM; for % Residual Compound 1: monkey liver microsomes 1 mg/mL
[6] = PO dose urine, 1 h collection, single animal (#15, Group 2A)
[7] = PO dose urine, 2 h collection, single animal (#20, Group 2B)
[8] = estimated profile table, group 2C (PO dose) urine, 24 h
[9] = group 1C (IV dose) pooled urine, 1 h collection
[10] = group 1C (IV dose) pooled urine, 2 h collection
[11] = group 1C (IV dose) pooled urine, 6 h collection
[12] = group 1C (IV dose) pooled urine, 24 h collection
[13] = group 2C (PO dose) pooled urine, 24 h collection

Structure (SMILES): CC(C)(CO)C(=O)SCCOP(=O)(NCc1ccccc1)OC[C@H]1O[C@@H](n2cnc3c(=O)[nH]c(N)nc32)[C@](C)(O)[C@@H]1O (mixture of isomers) [Compound 1, 3-hydroxy-2,2-dimethyl-thiopropionic acid S-(2-{[(2R,3R,4R,5R)-5-(2-amino-6-oxo-1,6-dihydro-purin-9-yl)-3,4-dihydroxy-4-methyl-tetrahydro-furan-2-ylmethoxy]-benzylamino-phosphoryloxy}-ethyl) ester]
- Total excretion (% AD), urine ([1]; IV (1C)): 26.1 % AD
- Percent of Dose, Urine 0-24 h ([1]; IV): 26.1% of Dose
- Percent of Dose, Urine 0-24 h ([1]; Oral): 0.02% of Dose
- Total excretion (% AD), urine ([1]; PO (2C), urine data estimated): 0.02 % AD
- % AD (percent of administered dose) [1, 6]: 0.06 % AD
- % HPLC (percent of HPLC peak area in the sample extract) [1, 6]: 74.8%
- % AD (percent of administered dose) [1, 7]: 0.01 % AD
- % HPLC (percent of HPLC peak area in the sample extract) [1, 7]: 6.57%
- % AD [1, 8]: 0.01 % AD
- % HPLC (percent of HPLC peak area in the sample extract) [1, 8]: 0.30%
- % of total urinary excretion, estimated ([1]; estimated profile, group 2C (PO dose) urine): 0.73%
- % AD, estimated ([1]; estimated profile, group 2C (PO dose) urine, 1 h): 0.01 % AD
- % HPLC (percent of HPLC peak area in the sample extract) ([1]; estimated profile, group 2C (PO dose) urine, 1 h, single animal % HPLC distribution): 74.8%
- % AD, estimated ([1]; estimated profile, group 2C (PO dose) urine, 2 h): 0.003 % AD
- % HPLC (percent of HPLC peak area in the sample extract) ([1]; estimated profile, group 2C (PO dose) urine, 2 h, single animal % HPLC distribution): 6.57%
- Total % AD, estimated ([1]; estimated profile, group 2C (PO dose) urine, total of all collections): 0.02 % AD
- % AD (percent of administered dose) [1, 9]: 21.39 % AD
- % HPLC (percent of HPLC peak area in the sample extract) [1, 9]: 93.5%
- % AD (percent of administered dose) [1, 10]: 2.50 % AD
- % HPLC (percent of HPLC peak area in the sample extract) [1, 10]: 48.9%
- % AD (percent of administered dose) [1, 11]: 0.71 % AD
- % HPLC (percent of HPLC peak area in the sample extract) [1, 11]: 30.5%
- % AD (percent of administered dose) [1, 12]: 1.51 % AD
- % HPLC (percent of HPLC peak area in the sample extract) [1, 12]: 9.09%
- % of total urinary excretion ([1]; group 1C (IV dose) urine): 55.6%
- Total % AD ([1]; group 1C (IV dose) urine, total of all collections): 26.1 % AD
- % AD (percent of administered dose) [1, 13]: 0.01 % AD
- % HPLC (percent of HPLC peak area in the sample extract) [1, 13]: 0.30%
- % of the total urinary excretion ([1]; rat urine, IV dose 50 mg/kg): 55.6%
- urinary component, % of the administered dose (% AD) ([1]; rat urine, IV dose 50 mg/kg, 0-24 h, 50 mg/kg): 26.1 % AD and 26 % AD
- urinary component, estimated % of the administered dose (% AD) ([1]; rat urine, PO dose 100 mg/kg, 0-24 h): 0.02 % AD
- % of the total radioactivity eliminated via urine within one hour ([1]; rat urine, PO dose, 1-h time point): 74.8%
- % of the total urinary excretion by 6 h ([1]; rat urine, PO dose, 6 h): 6.6%
- % Residual Compound 1 ([2]; 0 min, NADPH): 100%
- % Residual Compound 1 ([2]; 0 min, No Cofactor): 100%
- % Residual Compound 1 ([2]; 30 min, NADPH): 52%
- % Residual Compound 1 ([2]; 30 min, No Cofactor): 100%
- % Residual Compound 1 ([2]; 60 min, NADPH): 34%
- % Residual Compound 1 ([2]; 60 min, No Cofactor): 94%
- NADPH-dependent metabolism ([2]; human liver microsomes, NADPH, 60 min): 66%
- Percent of Dose, Total (urine, feces and liver) [3]: 45.9% of Dose
- Residual compound following incubation with pig liver esterase (pig liver esterase; Esterase 14 U, 60 min, 10 μM): 75%
- Compound 1 converted to Compound 2 (pig liver esterase; pig liver esterase, 60-min incubation): 25%
- % Residual Compound 1 ([4]; 0 min, NADPH): 100%
- % Residual Compound 1 ([4]; 0 min, No Cofactor): 100%
- % Residual Compound 1 ([4]; 30 min, NADPH): 53%
- % Residual Compound 1 ([4]; 30 min, No Cofactor): 103%
- % Residual Compound 1 ([4]; 60 min, NADPH): 36%
- % Residual Compound 1 ([4]; 60 min, No Cofactor): 103%
- NADPH-dependent metabolism ([4]; rat liver microsomes, NADPH, 60 min): 64%
- % Residual Compound 1 ([5]; 0 min, NADPH): 100%
- % Residual Compound 1 ([5]; 0 min, No Cofactor): 100%
- % Residual Compound 1 ([5]; 30 min, NADPH): 0%
- % Residual Compound 1 ([5]; 30 min, No Cofactor): 81%
- % Residual Compound 1 ([5]; 60 min, NADPH): 0%
- NADPH-dependent metabolism ([5]; monkey liver microsomes, NADPH, 30 min): 100%
